Data reported in patent publication US9801901B2, “Alginate oligomers for use in overcoming multidrug resistance in bacteria” (priority 2009, dated 2017).
Converted amounts (≈) assume the structure as drawn. Marks after values point to notes of the source that are not given here.

Tests used:
[1] = tested on: Pseudomonas aeruginosa MDR R22 from China (V1); experiment: MIC assay, CAMHB with alginate oligomer, no visible growth; format: cell-based; conditions: Pseudomonas aeruginosa, Table 1, V1 MDR R22 PA
Excerpt: (§1) The study described in Example 1 was repeated with the following strains of bacteria and antibiotics as detailed in Tables 4, 5 and 6.

[2] = tested on: V9 (Egypt) Acinetobacter baumannii; experiment: as above; format: cell-based
[3] = tested on: Pseudomonas aeruginosa CFA 24-1, clinical mucoid strain (R80); experiment: as above; format: cell-based
[4] = tested on: Acinetobacter baumannii MDR ACB from Libya (V4); experiment: as above; format: cell-based
Excerpt: as §1
The study described in Example 1 was repeated with the following strains of Acinetobacter baumannii, antibiotics and M-block alginate oligomer in place of OligoG CF-5/20 as detailed in Table 7. The M-block oligomer is 100% M with a DPn of 15 to 18,

V22 6056 Acinetobacter = experiment: as above; format: cell-based, Acinetobacter lwoffii
[5] = tested on: V23 1322 Burkholderia cepacia; experiment: as above; format: cell-based; conditions: Table 6, V23
[6] = tested on: MDR strains of Pseudomonas aeruginosa, Klebsiella pneumoniae, Burkholderia cepacia, Acinetobacter lwoffii, Acinetobacter baumannii and E. coli; experiment: MIC assay of Example 2, summary over the strains of Tables 4, 5 and 6; format: cell-based; conditions: Example 2, Tables 4, 5 and 6
V11 5702 (Wales) E. coli = experiment: MIC assay, CAMHB with alginate oligomer, no visible growth; format: cell-based
MDR Pseudomonas strains = experiment: MIC assay of Example 1, summary over the MDR Pseudomonas strains; format: cell-based, Pseudomonas aeruginosa
[7] = tested on: PA01 Pseudomonas aeruginosa ATCC 15692; experiment: MIC assay, two-fold antibiotic dilutions in CAMHB with alginate oligomer, no visible growth; format: cell-based
[8] = tested on: Klebsiella pneumoniae KP05 506 from India (V3); experiment: MIC assay, CAMHB with alginate oligomer, no visible growth; format: cell-based; conditions: for MIC: Klebsiella pneumoniae, Table 1, V3 KP05 506
[9] = tested on: Pseudomonas aeruginosa MDR 301 from Poland (V2); experiment: as above; format: cell-based; conditions: Pseudomonas aeruginosa, Table 1, V2 MDR 301 PA
[10] = tested on: V12 5725 (Wales) Klebsiella pneumoniae; experiment: as above; format: cell-based
[11] = tested on: V10 (Egypt) Acinetobacter lwoffii; experiment: as above; format: cell-based
[12] = tested on: Pseudomonas aeruginosa ATCC 39324, mucoid type strain (R79); experiment: as above; format: cell-based

CC1(C)C[C@@H]1C(=O)N/C(=C\CCCCSC[C@H](N)C(=O)O)C(=O)O [Primaxin, Imipenem/cilastatin]
MIC ([1]; OligoCF-5/20 0G): 128 µg/mL (≈ 357 µM) | MIC ([1]; OligoCF-5/20 +2% G): 128 µg/mL (≈ 357 µM) | MIC ([1]; OligoCF-5/20 +6% G): 64 µg/mL (≈ 179 µM) | MIC ([1]; OligoCF-5/20 +10% G): 32 µg/mL (≈ 89.3 µM) | MIC ([2]; Acinetobacter baumannii): 1 µg/mL (≈ 2.79 µM) | MIC ([2]; Table 5, V9 MDR Acin. baum, OligoCF-5/20 +2% G): 2 µg/mL (≈ 5.58 µM) | MIC ([2]; Table 5, V9 MDR Acin. baum, OligoCF-5/20 +6% G): <0.5^† μg/ml | MIC ([2]; Table 5, V9 MDR Acin. baum, OligoCF-5/20 +10% G): <0.5^† μg/ml | MIC ([3]; Pseudomonas aeruginosa): < 1 µg/mL | MIC ([3]; Table 1, R80, OligoCF-5/20 +2% G): <1 µg/mL | MIC ([3]; Table 1, R80, OligoCF-5/20 +6% G): <1 µg/mL | MIC ([3]; Table 1, R80, OligoCF-5/20 +10% G): <1 µg/mL | MIC ([4]; Acinetobacter baumannii): < 1 µg/mL | MIC ([4]; Table 1, V4 ACB (Libya), OligoCF-5/20 +2% G): <1 µg/mL | MIC ([4]; Table 1, V4 ACB (Libya), OligoCF-5/20 +6% G): <1 µg/mL | MIC ([4]; Table 1, V4 ACB (Libya), OligoCF-5/20 +10% G): <1 µg/mL | MIC (V22 6056 Acinetobacter; Acinetobacter): 8 µg/mL (≈ 22.3 µM) | MIC (V22 6056 Acinetobacter; Table 5, V22 MDR Acin. lwoff, OligoCF-5/20 +2% G): 8 µg/mL (≈ 22.3 µM) | MIC (V22 6056 Acinetobacter; Table 5, V22 MDR Acin. lwoff, OligoCF-5/20 +6% G): 8 µg/mL (≈ 22.3 µM) | MIC (V22 6056 Acinetobacter; Table 5, V22 MDR Acin. lwoff, OligoCF-5/20 +10% G): 4^† μg/ml | MIC ([5]; Burkholderia cepacia, Experiment 1 (18-03-10), OligoCF-5/20 0G): 128 µg/mL (≈ 357 µM) | MIC ([5]; Burkholderia cepacia, Experiment 2 (18-03-10), OligoCF-5/20 0G): 256 µg/mL (≈ 714 µM) | MIC ([5]; Burkholderia cepacia, Experiment 3 (19-03-10), OligoCF-5/20 0G): 256 µg/mL (≈ 714 µM) | MIC ([5]; Experiment 1 (18-03-10), OligoCF-5/20 +2% G): 128 µg/mL (≈ 357 µM) | MIC ([5]; Experiment 1 (18-03-10), OligoCF-5/20 +6% G): 64^† μg/ml | MIC ([5]; Experiment 1 (18-03-10), OligoCF-5/20 +10% G): 32^† μg/ml | MIC ([5]; Experiment 2 (18-03-10), OligoCF-5/20 +2% G): 128^† μg/ml | MIC ([5]; Experiment 2 (18-03-10), OligoCF-5/20 +6% G): 128^† μg/ml | MIC ([5]; Experiment 2 (18-03-10), OligoCF-5/20 +10% G): 64^† μg/ml | MIC ([5]; Experiment 3 (19-03-10), OligoCF-5/20 +2% G): 256 µg/mL (≈ 714 µM) | MIC ([5]; Experiment 3 (19-03-10), OligoCF-5/20 +6% G): 256 µg/mL (≈ 714 µM) | MIC ([5]; Experiment 3 (19-03-10), OligoCF-5/20 +10% G): 128^† μg/ml | change of MIC with increasing amounts of OligoG CF-5/20 [6]: decreasing MICs | MIC (V11 5702 (Wales) E. coli; Escherichia coli): < 0.5 µg/mL | MIC (V11 5702 (Wales) E. coli; Table 5, V11 MDR E.coli, OligoCF-5/20 +2% G): <0.5 µg/mL | MIC (V11 5702 (Wales) E. coli; Table 5, V11 MDR E.coli, OligoCF-5/20 +6% G): <0.5 µg/mL | MIC (V11 5702 (Wales) E. coli; Table 5, V11 MDR E.coli, OligoCF-5/20 +10% G): <0.5 µg/mL | effectiveness when used in combination with the alginate oligomers (MDR Pseudomonas strains): more effective | MIC ([7]; Pseudomonas aeruginosa, ATCC15692): < 1 µg/mL | MIC ([7]; Table 1, PA01, OligoCF-5/20 +2% G): <1 µg/mL | MIC ([7]; Table 1, PA01, OligoCF-5/20 +6% G): <1 µg/mL | MIC ([7]; Table 1, PA01, OligoCF-5/20 +10% G): <1 µg/mL | effectiveness in conjunction with alginate oligomers ([8]; Example 1, KP05 506): inconclusive | MIC ([8]; OligoCF-5/20 0G): 32 µg/mL (≈ 89.3 µM) | MIC ([8]; OligoCF-5/20 +2% G): 64 µg/mL (≈ 179 µM) | MIC ([8]; OligoCF-5/20 +6% G): 64 µg/mL (≈ 179 µM) | MIC ([8]; OligoCF-5/20 +10% G): 64 µg/mL (≈ 179 µM) | MIC ([9]; OligoCF-5/20 0G): 512 µg/mL (≈ 1430 µM) | MIC ([9]; OligoCF-5/20 +2% G): 256 µg/mL (≈ 714 µM) | MIC ([9]; OligoCF-5/20 +6% G): 256 µg/mL (≈ 714 µM) | MIC ([9]; OligoCF-5/20 +10% G): 128 µg/mL (≈ 357 µM) | MIC ([10]; Klebsiella pneumoniae): < 0.5 µg/mL | MIC ([10]; Table 5, V12 MDR Kleb pneu, OligoCF-5/20 +2% G): <0.5 µg/mL | MIC ([10]; Table 5, V12 MDR Kleb pneu, OligoCF-5/20 +6% G): <0.5 µg/mL | MIC ([10]; Table 5, V12 MDR Kleb pneu, OligoCF-5/20 +10% G): <0.5 µg/mL | MIC ([11]; Acinetobacter lwoffii): < 0.5 µg/mL | MIC ([11]; Table 5, V10 MDR Acin. lwoff, OligoCF-5/20 +2% G): <0.5 µg/mL | MIC ([11]; Table 5, V10 MDR Acin. lwoff, OligoCF-5/20 +6% G): <0.5 µg/mL | MIC ([11]; Table 5, V10 MDR Acin. lwoff, OligoCF-5/20 +10% G): <0.5 µg/mL | MIC ([12]; Pseudomonas aeruginosa, ATCC39324): < 1 µg/mL | MIC ([12]; Table 1, R79, OligoCF-5/20 +2% G): <1 µg/mL | MIC ([12]; Table 1, R79, OligoCF-5/20 +6% G): <1 µg/mL | MIC ([12]; Table 1, R79, OligoCF-5/20 +10% G): <1 µg/mL
